# Data published in ChEMBL document CHEMBL1649268, “Comparative in vitro activity profile of oritavancin against recent gram-positive clinical isolates” (2009).
# Legend:
# Enterococcus faecium [1] = assay: Antimicrobial activity against Enterococcus faecium expressing VanB gene clinical isolates assessed as percent susceptible isolates by broth microdilution method; format: functional
# Enterococcus faecium [2] = assay: Antimicrobial activity against Enterococcus faecium expressing VanA gene clinical isolates assessed as percent susceptible isolates by broth microdilution method; format: functional
# Enterococcus faecium [3] = assay: Antimicrobial activity against vancomycin-nonsusceptible Enterococcus faecium clinical isolates assessed as percent susceptible isolates by broth microdilution method; format: functional
# Enterococcus faecium [4] = assay: Antimicrobial activity against vancomycin-susceptible Enterococcus faecium clinical isolates assessed as percent susceptible isolates by broth microdilution method; format: functional
# Enterococcus faecium [5] = assay: Antimicrobial activity against Enterococcus faecium clinical isolates assessed as percent susceptible isolates by broth microdilution method; format: functional
# Enterococcus faecalis [6] = assay: Antimicrobial activity against Enterococcus faecalis expressing VanB gene clinical isolates assessed as percent susceptible isolates by broth microdilution method; format: functional
# Enterococcus faecalis [7] = assay: Antimicrobial activity against vancomycin-nonsusceptible Enterococcus faecalis clinical isolates assessed as percent susceptible isolates by broth microdilution method; format: functional
# Enterococcus faecalis [8] = assay: Antimicrobial activity against vancomycin-susceptible Enterococcus faecalis clinical isolates assessed as percent susceptible isolates by broth microdilution method; format: functional
# Enterococcus faecalis [9] = assay: Antimicrobial activity against Enterococcus faecalis clinical isolates assessed as percent susceptible isolates by broth microdilution method; format: functional
# [10] = Antimicrobial activity against Streptococcus Group G clinical isolates assessed as resistant isolates by broth microdilution method; format: functional, Streptococcus sp. 'group G'
# [11] = Antimicrobial activity against erythromycin-nonsusceptible Streptococcus Group C clinical isolates assessed as resistant isolates by broth microdilution method; format: functional, Streptococcus sp. 'group C'
# [12] = Antimicrobial activity against Streptococcus Group C clinical isolates assessed as resistant isolates by broth microdilution method; format: functional, Streptococcus sp. 'group C'
# Streptococcus pyogenes [13] = assay: Antimicrobial activity against erythromycin-nonsusceptible Streptococcus pyogenes clinical isolates assessed as resistant isolates by broth microdilution method; format: functional
# Streptococcus pyogenes [14] = assay: Antimicrobial activity against erythromycin-susceptible Streptococcus pyogenes clinical isolates assessed as resistant isolates by broth microdilution method; format: functional
# Enterococcus faecium [15] = assay: Antimicrobial activity against Enterococcus faecium expressing VanB gene clinical isolates assessed as resistant isolates by broth microdilution method; format: functional
# Enterococcus faecium [16] = assay: Antimicrobial activity against vancomycin-nonsusceptible Enterococcus faecium clinical isolates assessed as resistant isolates by broth microdilution method; format: functional
# Enterococcus faecium [17] = assay: Antimicrobial activity against vancomycin-susceptible Enterococcus faecium clinical isolates assessed as resistant isolates by broth microdilution method; format: functional
# Enterococcus faecium [18] = assay: Antimicrobial activity against Enterococcus faecium clinical isolates assessed as resistant isolates by broth microdilution method; format: functional
# Enterococcus faecalis [19] = assay: Antimicrobial activity against Enterococcus faecalis clinical isolates assessed as resistant isolates by broth microdilution method; format: functional
# Streptococcus pneumoniae [20] = assay: Antimicrobial activity against Streptococcus pneumoniae clinical isolates assessed as resistant isolates by broth microdilution method; format: functional
# Streptococcus pneumoniae [21] = assay: Antimicrobial activity against penicillin-susceptible Streptococcus pneumoniae clinical isolates assessed as resistant isolates by broth microdilution method; format: functional
# Enterococcus faecium [22] = assay: Antimicrobial activity against Enterococcus faecium expressing VanB gene clinical isolates by broth microdilution method; format: functional
# Enterococcus faecium [23] = assay: Antimicrobial activity against Enterococcus faecium expressing VanA gene clinical isolates by broth microdilution method; format: functional
# Enterococcus faecium [24] = assay: Antimicrobial activity against vancomycin-nonsusceptible Enterococcus faecium clinical isolates by broth microdilution method; format: functional
# Enterococcus faecium [25] = assay: Antimicrobial activity against vancomycin-susceptible Enterococcus faecium clinical isolates by broth microdilution method; format: functional
# Enterococcus faecalis [26] = assay: Antimicrobial activity against Enterococcus faecalis expressing VanB gene clinical isolates by broth microdilution method; format: functional
# Enterococcus faecalis [27] = assay: Antimicrobial activity against Enterococcus faecalis expressing VanA gene clinical isolates by broth microdilution method; format: functional
# Enterococcus faecalis [28] = assay: Antimicrobial activity against vancomycin-nonsusceptible Enterococcus faecalis clinical isolates by broth microdilution method; format: functional
# Enterococcus faecalis [29] = assay: Antimicrobial activity against vancomycin-susceptible Enterococcus faecalis clinical isolates by broth microdilution method; format: functional
# Enterococcus faecalis [30] = assay: Antimicrobial activity against Enterococcus faecalis clinical isolates by broth microdilution method; format: functional
# Streptococcus [31] = assay: Antimicrobial activity against erythromycin-nonsusceptible Streptococcus Group F clinical isolates assessed as percent susceptible isolates by broth microdilution method; format: functional
# Streptococcus [32] = assay: Antimicrobial activity against erythromycin-susceptible Streptococcus Group F clinical isolates assessed as percent susceptible isolates by broth microdilution method; format: functional
# Streptococcus [33] = assay: Antimicrobial activity against Streptococcus Group F clinical isolates assessed as percent susceptible isolates by broth microdilution method; format: functional
# [34] = Antimicrobial activity against erythromycin-nonsusceptible Streptococcus Group G clinical isolates assessed as percent susceptible isolates by broth microdilution method; format: functional, Streptococcus sp. 'group G'
# [35] = Antimicrobial activity against Streptococcus Group G clinical isolates assessed as percent susceptible isolates by broth microdilution method; format: functional, Streptococcus sp. 'group G'
# [36] = Antimicrobial activity against Streptococcus Group C clinical isolates assessed as percent susceptible isolates by broth microdilution method; format: functional, Streptococcus sp. 'group C'
# [37] = tested on: Staphylococcus haemolyticus; assay: Antimicrobial activity against Staphylococcus haemolyticus clinical isolates assessed as percent susceptible isolates by broth microdilution method; format: functional
# [38] = tested on: Staphylococcus epidermidis; assay: Antimicrobial activity against oxacillin-susceptible Staphylococcus epidermidis clinical isolates assessed as percent susceptible isolates by broth microdilution method; format: functional
# [39] = tested on: Staphylococcus epidermidis; assay: Antimicrobial activity against Staphylococcus epidermidis clinical isolates assessed as percent susceptible isolates by broth microdilution method; format: functional
# Staphylococcus aureus [40] = assay: Antimicrobial activity against oxacillin-resistant Staphylococcus aureus clinical isolates assessed as percent susceptible isolates by broth microdilution method; format: functional
# Staphylococcus aureus [41] = assay: Antimicrobial activity against Staphylococcus aureus clinical isolates assessed as percent susceptible isolates by broth microdilution method; format: functional
# [42] = tested on: Staphylococcus haemolyticus; assay: Antimicrobial activity against oxacillin-resistant Staphylococcus haemolyticus clinical isolates assessed as resistant isolates by broth microdilution method; format: functional
# [43] = tested on: Staphylococcus epidermidis; assay: Antimicrobial activity against oxacillin-resistant Staphylococcus epidermidis clinical isolates assessed as resistant isolates by broth microdilution method; format: functional
# [44] = tested on: Staphylococcus epidermidis; assay: Antimicrobial activity against oxacillin-susceptible Staphylococcus epidermidis clinical isolates assessed as resistant isolates by broth microdilution method; format: functional
# [45] = tested on: Staphylococcus epidermidis; assay: Antimicrobial activity against Staphylococcus epidermidis clinical isolates assessed as resistant isolates by broth microdilution method; format: functional
# Staphylococcus aureus [46] = assay: Antimicrobial activity against oxacillin-resistant Staphylococcus aureus clinical isolates assessed as resistant isolates by broth microdilution method; format: functional
# Staphylococcus aureus [47] = assay: Antimicrobial activity against oxacillin-susceptible Staphylococcus aureus clinical isolates assessed as resistant isolates by broth microdilution method; format: functional
# Staphylococcus aureus [48] = assay: Antimicrobial activity against Staphylococcus aureus clinical isolates assessed as resistant isolates by broth microdilution method; format: functional
# [49] = tested on: Staphylococcus epidermidis; assay: Antimicrobial activity against oxacillin-resistant Staphylococcus epidermidis clinical isolates by broth microdilution method; format: functional
# [50] = tested on: Staphylococcus epidermidis; assay: Antimicrobial activity against Staphylococcus epidermidis clinical isolates by broth microdilution method; format: functional
# Staphylococcus aureus [51] = assay: Antimicrobial activity against oxacillin-resistant Staphylococcus aureus clinical isolates by broth microdilution method; format: functional
# Staphylococcus aureus [52] = assay: Antimicrobial activity against oxacillin-susceptible Staphylococcus aureus clinical isolates by broth microdilution method; format: functional
# Staphylococcus aureus [53] = assay: Antimicrobial activity against Staphylococcus aureus clinical isolates by broth microdilution method; format: functional
# Streptococcus [54] = assay: Antimicrobial activity against Streptococcus Group F clinical isolates assessed as resistant isolates by broth microdilution method; format: functional
# Streptococcus [55] = assay: Antimicrobial activity against erythromycin-susceptible Streptococcus Group F clinical isolates assessed as resistant isolates by broth microdilution method; format: functional
# Streptococcus [56] = assay: Antimicrobial activity against erythromycin-nonsusceptible Streptococcus Group F clinical isolates assessed as resistant isolates by broth microdilution method; format: functional
compound,measurement,setting,value
C[C@H]1COc2c(N3CCN(C)CC3)c(F)cc3c(=O)c(C(=O)O)cn1c23.C[C@H]1COc2c(N3CCN(C)CC3)c(F)cc3c(=O)c(C(=O)O)cn1c23.O [LEVOFLOXACIN],Activity,Enterococcus faecium [1],0%
same,Activity,Enterococcus faecium [2],0.2%
same,Activity,Enterococcus faecium [3],0.2%
same,Activity,Enterococcus faecium [4],28.3%
same,Activity,Enterococcus faecium [5],12.2%
same,Activity,Enterococcus faecalis [6],0%
same,Activity,Enterococcus faecalis [7],0%
same,Activity,Enterococcus faecalis [8],64.4%
same,Activity,Enterococcus faecalis [9],61.2%
same,Activity,[10],0%
same,Activity,[11],0%
same,Activity,[12],0%
same,Activity,Streptococcus pyogenes [13],0.8%
same,Activity,Streptococcus pyogenes [14],0%
same,Activity,Enterococcus faecium [15],100%
same,Activity,Enterococcus faecium [16],99.8%
same,Activity,Enterococcus faecium [17],66%
same,Activity,Enterococcus faecium [18],85.3%
same,Activity,Enterococcus faecalis [19],38.4%
same,Resistant isolates,Streptococcus pneumoniae [20],0.9%
same,Percent of isolates resistant,Streptococcus pneumoniae [21],0.5%
same,MIC90,Enterococcus faecium [22],> 16 µg/mL
same,MIC90,Enterococcus faecium [23],> 16 µg/mL
same,MIC90,Enterococcus faecium [24],> 16 µg/mL
same,MIC90,Enterococcus faecium [25],> 16 µg/mL
same,MIC90,Enterococcus faecalis [26],> 16 µg/mL
same,MIC90,Enterococcus faecalis [27],> 16 µg/mL
same,MIC90,Enterococcus faecalis [28],> 16 µg/mL
same,MIC90,Enterococcus faecalis [29],> 16 µg/mL
same,MIC90,Enterococcus faecalis [30],> 16 µg/mL
CN[C@H](CC(C)C)C(=O)N[C@H]1C(=O)N[C@@H](CC(N)=O)C(=O)N[C@H]2C(=O)N[C@H]3C(=O)N[C@H](C(=O)N[C@H](C(=O)O)c4cc(O)cc(O)c4-c4cc3ccc4O)[C@H](O)c3ccc(c(Cl)c3)Oc3cc2cc(c3O[C@@H]2O[C@H](CO)[C@@H](O)[C@H](O)[C@H]2O[C@H]2C[C@](C)(N)[C@H](O)[C@H](C)O2)Oc2ccc(cc2Cl)[C@H]1O [VANCOMYCIN],Activity,Streptococcus [31],100%
same,Activity,Streptococcus [32],100%
same,Activity,Streptococcus [33],100%
same,Activity,[34],100%
same,Activity,[35],100%
same,Activity,[36],100%
same,Activity,Enterococcus faecium [1],0%
same,Activity,Enterococcus faecium [2],0%
same,Activity,Enterococcus faecium [3],0%
same,Activity,Enterococcus faecium [5],42.7%
same,Activity,Enterococcus faecalis [6],0%
same,Activity,Enterococcus faecalis [7],0%
same,Activity,Enterococcus faecalis [8],100%
same,Activity,Enterococcus faecalis [9],95%
same,Activity,[37],100%
same,Activity,[38],100%
same,Activity,[39],100%
same,Activity,Staphylococcus aureus [40],100%
same,Activity,Staphylococcus aureus [41],100%
same,Activity,Enterococcus faecium [17],0%
same,Activity,Enterococcus faecium [18],56.3%
same,Activity,Enterococcus faecalis [19],4.7%
same,Activity,[42],0%
same,Percent of isolates resistant,[43],0%
same,Percent of isolates resistant,[44],0%
same,Percent of isolates resistant,[45],0%
same,Percent resistant isolates,Staphylococcus aureus [46],0%
same,Percent of isolates resistant,Staphylococcus aureus [47],0%
same,Percent resistant isolates,Staphylococcus aureus [48],0%
same,MIC90,Enterococcus faecium [22],256 µg/mL
same,MIC90,Enterococcus faecium [23],> 256 µg/mL
same,MIC90,Enterococcus faecium [24],> 256 µg/mL
same,MIC90,Enterococcus faecium [25],1 µg/mL
same,MIC90,Enterococcus faecalis [26],> 256 µg/mL
same,MIC90,Enterococcus faecalis [27],> 256 µg/mL
same,MIC90,Enterococcus faecalis [28],> 256 µg/mL
same,MIC90,Enterococcus faecalis [29],2 µg/mL
same,MIC90,Enterococcus faecalis [30],2 µg/mL
same,MIC90,[49],2 µg/mL
same,MIC90,[50],2 µg/mL
same,MIC90,Staphylococcus aureus [51],1 µg/mL
same,MIC90,Staphylococcus aureus [52],1 µg/mL
same,MIC90,Staphylococcus aureus [53],1 µg/mL
CCC[C@@H]1C[C@@H](C(=O)N[C@@H]([C@H]2O[C@H](SC)[C@H](O)[C@@H](O)[C@H]2O)[C@H](C)Cl)N(C)C1 [CLINDAMYCIN],Activity,Streptococcus [31],82.4%
same,Activity,Streptococcus [32],100%
same,Activity,Streptococcus [33],96.4%
same,Activity,[34],82.4%
same,Activity,[35],96.4%
same,Activity,[36],96.4%
same,Activity,[37],70.3%
same,Activity,[38],88.2%
same,Activity,[39],65%
same,Activity,Staphylococcus aureus [40],61.9%
same,Activity,Staphylococcus aureus [41],75.7%
same,Activity,Streptococcus [54],3.6%
same,Activity,Streptococcus [55],0%
same,Activity,Streptococcus [56],17.6%
same,Activity,[10],3.6%
same,Activity,[11],17.6%
same,Activity,[12],3.6%
same,Activity,Streptococcus pyogenes [13],28.2%
same,Activity,Streptococcus pyogenes [14],0%
same,Activity,[42],37.1%
same,Percent of isolates resistant,[43],43.3%
same,Percent of isolates resistant,[44],11%
same,Percent of isolates resistant,[45],34.5%
same,Percent resistant isolates,Staphylococcus aureus [46],37.9%
same,Percent of isolates resistant,Staphylococcus aureus [47],8%
same,Percent resistant isolates,Staphylococcus aureus [48],24.1%
same,Resistant isolates,Streptococcus pneumoniae [20],12.9%
same,Percent of isolates resistant,Streptococcus pneumoniae [21],2.6%
same,MIC90,[50],> 4 µg/mL
same,MIC90,Staphylococcus aureus [52],0.25 µg/mL
same,MIC90,Staphylococcus aureus [53],> 4 µg/mL
